Results: publication PMC7887336, “Altered functional properties of the codling moth Orco mutagenized in the intracellular loop-3” (Scientific Reports, 2021)
Values joined by “and” are separate entries in the source; they are usually repeats but may differ in a detail not shown here. Equal values may be shown once.

Tests used:
CpomOrco^Q417H [1] = molecular target: T1, CpomOrco^Q417H (Cydia pomonella, UniProt H9A5M2, Q417H); assay: Calcium imaging (Fluo-4) of HEK293A cells transfected with mutagenized CpomOrco^Q417H, VUAA1 stimulation; type: cell-based; settings: for EC50: EC50, HEK293A; for Hill coefficient / maximum response (Hill fit of calcium response amplitudes): HEK293A
Procedure: (§1) HEK293 cells lines (HEK293A/HEK293T) were grown in HEK cell media [Dulbecco's modified Eagle's medium containing 10% fetal bovine serum (MP Biomedicals, Solon, OH, USA), 2.0 mM L-glutamine, and 100 µg/mL penicillin/streptomycin (Invitrogen)] at 37 °C and 5% CO2. To test transient expression of wild type CpomOrco and CpomOrco^Q417H variant for calcium imaging and patch-clamp recording, 35-mm petri dishes containing semi-confluent HEK293A cells were transiently transfected. Cells were transfected with 0.6 µg of pcDNA40-DEST carrying the coding sequence of the CpomOrco variant (depending on the experiments). To report expression for calcium imaging experiments, 0.6 µg of a separate plasmid DNA [pEBFP2-Nuc, a gift from Robert Campbell (Addgene plasmid # 1489352)] carrying the coding sequence for a blue fluorescent protein (EBFP) was co-transfected. To report expression in patch-clamp recordings, 1.0 µg of a separate plasmid DNA (pXOOM, Clontech, Mountain View, CA, USA) carrying the coding sequence for a green fluorescent protein (GFP) was co-transfected. Expressions of fluorescent reporter genes were under the regulation of the same promoter for Cpom-genes (CMV). For specific experiments, co-transfections were conducted combining an additional 1.2 µg of pcDNA40-DEST/CpomOR3 or pcDNA40-DEST/CpomOR6a, as we previously described. Co-transfections with CpomOR3 were performed for dose–response experiments to pear ester: CpomOR3 was co-expressed with CpomOrco variants by the use of HEK293T (Fig. 3b); given the reported functional co-expression data of the CpomOrco + OR3 heteromers by the use of these specific cells. In brief, transfection DNAs were dissolved in 100 µL sterile DMEM, mixed with 3.0 µL Calfectin (SignaGen, Rockville, MD, USA) following the recommended protocol. Transfections were conducted overnight for up to 18 h, HEK cell media was replaced with 2.0 mL fresh media to incubate cells at 37 °C for up to 6–8 h, at which point part of the cell culture was spread in the middle of a 35-mm plate as individual cells or small clusters and rinsed at the sides with 2.0 mL fresh HEK media. After splitting, cells were allowed to recover for at least 1 day prior to calcium imaging.
Activation of HEK293 cells transfected with CpomOrco variants was tested using the same procedures we previously described. Petri dishes were incubated for 1 h at room temperature in 1.0 mL HEK Ca^++ Ringer (mM: 140 NaCl, 5.0 KCl, 2.0 CaCl2, 10 HEPES, pH 7.4) containing the fluorescent calcium indicator Fluo-4AM (Invitrogen) at 5–15 µM prepared with 0.2–0.06% Pluronic F-127 (Invitrogen). To monitor intracellular pH, HEK293A cells were loaded with 10.0 µL BCECF dye (Anaspec, Fremont, CA).
As reported in Cattaneo et al.[14], the buffer was removed after incubation, cells were rinsed with 4.0 mL fresh HEK Ca^++ Ringer and placed on the stage of an inverted microscope (Olympus IX-71, Olympus Corp., Tokyo, Japan) equipped with a cooled CCD camera (ORCA R2, Hamamatsu, Hamamatsu City, Japan). Cells were continuously superfused with Ca^++ Ringer using two gravity fed perfusion contours. The […] contour washing the cells (~ 250 µL/min) was switched rapidly to the stimulus contour using a multi-channel rapid solution changer (RSC-160, Bio-Logic, Claix, France) under the software control of Clampex 9 (Molecular Devices, Sunnyvale, CA, USA).
Fluorescence imaging was performed using settings optimized for Imaging Workbench 6 software (INDEC BioSystems, Santa Clara, CA, USA)[14]. The non-responsive cells were not included in these analyses. Each cell was assigned a region of interest (ROI) and changes in fluorescence intensity within each ROI were measured and expressed as the fractional change in fluorescence intensity (dF). Stored time series image stacks were analysed off-line using Imaging Workbench 6, Clampfit 10.5 (Molecular Devices) and SigmaPlot 11 (Systat Software Inc., San Jose, CA, USA). Dose–response curves were approximated using Hill equation. […]

CpomOrco^Q417H [2] = molecular target: T1, CpomOrco^Q417H; assay: Whole-cell voltage-clamp recordings of HEK293A cells transfected with CpomOrco^Q417H, VUAA1; type: cell-based; settings: for EC50: EC50 (K1/2)
Procedure: as §1
Electrophysiological experiments were performed according with the same procedures we previously described. Patch pipettes were fabricated from borosilicate capillary glass (BF150-86–10, Sutter Instrument, CA, USA) using a Flaming-Brown micropipette puller (P-87, Sutter Instrument). Only patches with initial cell-attached seal resistance estimated higher than 1.0 GOhms were used in the experiments. Intracellular (pipette) solution for whole-cell experiments was KCl 140 mM, EGTA 1 mM, Hepes 5 mM, MES 5 mM, pH 8.0 or pH 5.5 (depending on the experiment) adjusted with either NaOH or HCl, standard Na^+ 140 mM. bath solution was usually NaCl 140 mM, EGTA 0.1 mM, Hepes 10 mM, pH 7.4 (adjusted with Tris-base or NaOH). VUAA1 doses (0–1000 µM) were added to the extracellular test solutions.
As described in methods of Cattaneo et al.[14], GFP positive HEK293A cells were visualized using either an Axiovert 100 inverted microscope (Carl Zeiss, Inc., München, Germany) equipped with a mercury vapour compressed-arc lamp (HBO100) coupled to widefield fluorescence filter set (1114–459, Carl Zeiss, Inc.) or Olympus IX-71 inverted microscope described above (Olympus Corp.). The Orco channel-mediated currents were investigated using whole-cell patch-clamp recordings. The currents were measured with a 200B patch-clamp amplifier (Molecular Devices) and a digital interface (Digidata 1320A, Molecular Devices), low pass filtered at 5.0 kHz, sampled at 1–2 kHz. Analysis of the data was carried out using pCLAMP 9.2/10.5 software (Molecular Devices) and SigmaPlot 11 (Systat Software Inc). […]

[3] = after 30 min incubation at low pHe = 4.7
[4] = intracellular pH = 5.5, extracellular pH 7.4, -50 mV
[5] = intracellular pH = 8.0, extracellular pH 7.4, -50 mV

T1 sequence (H9A5M2 entry or part of it Q417H): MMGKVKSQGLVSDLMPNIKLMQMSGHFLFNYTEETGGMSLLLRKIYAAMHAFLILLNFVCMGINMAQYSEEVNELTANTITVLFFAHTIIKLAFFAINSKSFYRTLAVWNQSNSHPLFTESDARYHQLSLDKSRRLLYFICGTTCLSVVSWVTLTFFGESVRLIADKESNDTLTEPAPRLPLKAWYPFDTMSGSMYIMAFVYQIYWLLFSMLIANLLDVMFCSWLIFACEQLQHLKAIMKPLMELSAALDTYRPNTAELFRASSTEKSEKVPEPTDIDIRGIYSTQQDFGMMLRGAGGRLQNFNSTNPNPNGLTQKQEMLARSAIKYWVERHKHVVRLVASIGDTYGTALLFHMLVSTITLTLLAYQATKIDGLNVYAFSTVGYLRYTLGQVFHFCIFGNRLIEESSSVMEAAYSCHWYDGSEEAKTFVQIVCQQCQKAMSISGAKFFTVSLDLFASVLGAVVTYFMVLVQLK

## CCc1ccc(NC(=O)CSc2nnc(-c3cccnc3)n2CC)cc1 [VUAA1, acetamide,N-(4-ethylphenyl)-2-[[4-ethyl-5-(3-pyridinyl)-4H-1,2,4-triazol-3-yl]thio]-]
CpomOrco^Q417H [1]; [3]
  EC50: ~263 µM
  Hill coefficient: ~ 2.2 ± 0.5
CpomOrco^Q417H [1]; control pH conditions (pH 7.4), Hill fit
  EC50: ~261 µM and ~262 µM
CpomOrco^Q417H [1]; after 30 min incubation at low pHe = 4.7, n = 63, constraints applied to fit
  maximum response (Hill fit of calcium response amplitudes): ~ 1.8 ± 0.2 ∆F and 1.8 ∆F
CpomOrco^Q417H [1]; control pH conditions (pH 7.4)
  Hill coefficient: ~ 2.1 ± 1.9
CpomOrco^Q417H [1]; control pH conditions (pH 7.4), N = 94 cells
  maximum response (Hill fit of calcium response amplitudes): ~ 3.9 ∆F and ~ 3.9 ± 1.3 ∆F and 3.9 ∆F
CpomOrco^Q417H [2]; [4]
  EC50: ~550 µM
  Imax (whole-cell current amplitude, Hill fit): ~216 pA and ~ 216 ± 23 pA
CpomOrco^Q417H [2]; [5]
  EC50: ~615 µM
  Imax (whole-cell current amplitude, Hill fit): ~ 332 pA and ~ 332 ± 44 pA
CpomOrco^Q417H [2]; intracellular pH = 5.5
  h (Hill equation): ~ 4 ± 1.4
CpomOrco^Q417H [2]; intracellular pH = 5.5, GFP positive cells tested
  number of cells sensitive to VUAA1: 6 out of 9
CpomOrco^Q417H [2]; intracellular pH = 8.0
  h (Hill equation): ~ 5 ± 1.9
CpomOrco^Q417H [2]; intracellular pH = 8.0, GFP positive cells tested
  number of cells sensitive to VUAA1: 11 out of 17
